Like-named read-outs stand apart in the source and are kept apart here.
Experiments:
[1] = system: RV-infected MA104 cells; conditions: reference [29]; cited from earlier work
[2] = system: RV SA114F; test: Focus forming unit (FFU) viral titer of supernatants of RV-infected HT29.f8 cells treated with stilbenoids; format: cell-based, simian rotavirus SA114F
[3] = system: RV SA114F; test: Plaque forming unit (PFU) assay of the same supernatants; format: cell-based, simian rotavirus SA114F; conditions: 20 μM, average of three experiments, HT29.f8 supernatants
[4] = system: cannabinoid receptor 1 (CB1R); conditions: cited from earlier work; for mode of action at CB1R: reference [19]; for modulation of the cannabinoid receptors: references [18, 19]
[5] = system: mammalian cells; conditions: all cell lines, reference [3]; cited from earlier work
[6] = system: human leukemia HL-60 cells; conditions: reference [2]; cited from earlier work
[7] = system: rotavirus (Wa) infected HT29.f8 cells; test: TEM observations of cell ultrastructure of rotavirus (Wa) infected HT29.f8 cells; format: cell-based, human; conditions: 20 μM, 18 hpi
From the text: Observations of Cell Ultrastructure with TEM of Rotavirus (RV) Infected HT29.f8 Cells w/without t-A3
Mitochondria (M), rotavirus particles (RV), and a nucleolus (N) can be seen. Final Magnification=8,300×.

Row | SMILES | change in virus titer (FFU) compared to RV-infected control [2] | difference in PFU/ml versus RV only and RV with DMSO [3] | mode of action at CB1R [4] | modulation of the cannabinoid receptors [4] | other results
1 | CCCCCCCCCCCCCCOc1ccc(C(=O)O)o1 [TOFA, 5-(tetradecyloxy)-2-furoic acid] | – | – | – | – | virus infectivity and viral RNA production [1]: dose-dependent reduction
2 | CC(C)/C=C/c1c(O)cc(/C=C/c2ccc(O)c(O)c2)cc1O [t-A1, Trans-Arachidin-1] | one hundred fold decrease in virus titer | one hundred fold difference | antagonize CB1R agonists by both competitive and non-competitive mechanisms | modulate the cannabinoid receptors at micromolar levels | cytotoxicity [5]: highest but moderate cytotoxicity; programmed cell death [6]: inducing programmed cell death
3 | CC(C)/C=C/c1c(O)cc(/C=C/c2ccc(O)cc2)cc1O [t-A3, trans-arachidin-3] | one hundred fold decrease in virus titer | one hundred fold difference | competitive cannabinoid receptor 1 (CB1R) antagonist | modulate the cannabinoid receptors at micromolar levels | RV particles observed that were noninfectious, immature enveloped particles [7]: about 50%; autophagic vesicles (AV) ([7]; RV(Wa)): absent; mitochondria ultrastructure ([7]; RV(Wa)): Many mitochondria present with normal ultrastructure; nucleoli ([7]; RV(Wa)): Nucleoli present; vesicles in the cytoplasm ([7]; RV(Wa)): not as many as in the RV(Wa) only
4 | Oc1ccc(/C=C/c2cc(O)cc(O)c2)cc1 [t-Res, Trans-resveratrol, reference compound] | – | no statistical differences | – | – | change in virus titer (FFU) compared to RV-infected control ([2]; 20 μM, 24 hours post-infection, HT29.f8 cells): no change in the virus titer
